Assay results published in ChEMBL document CHEMBL1150788, “In vitro susceptibility of Sporothrix schenckii to six antifungal agents determined using three different methods” (2007).
Converted amounts (≈) assume the structure as drawn.

Tests used:
Format in all cases: functional
Sporothrix schenckii [1] = assay: Antifungal activity against Sporothrix schenckii P3287 isolate from cutaneous-lymphatic sporotrichosis patient after 72 hrs by ATB Fungus 2 method
Sporothrix schenckii [2] = assay: Antifungal activity against Sporothrix schenckii P0019 isolate from cutaneous-lymphatic sporotrichosis patient after 72 hrs by modified NCCLS M38-A method
Sporothrix schenckii [3] = assay: Antifungal activity against Sporothrix schenckii P0019 isolate from cutaneous-lymphatic sporotrichosis patient after 72 hrs by Sensititre YeastOne method
Sporothrix schenckii [4] = assay: Antifungal activity against Sporothrix schenckii P0019 isolate from cutaneous-lymphatic sporotrichosis patient after 72 hrs by ATB Fungus 2 method
Sporothrix schenckii [5] = assay: Antifungal activity against Sporothrix schenckii PSSA81 isolate from cutaneous-lymphatic sporotrichosis patient after 72 hrs by modified NCCLS M38-A method
Sporothrix schenckii [6] = assay: Antifungal activity against Sporothrix schenckii PSSA81 isolate from cutaneous-lymphatic sporotrichosis patient after 72 hrs by Sensititre YeastOne method
Sporothrix schenckii [7] = assay: Antifungal activity against Sporothrix schenckii P25013 isolate from cutaneous-lymphatic sporotrichosis patient after 72 hrs by Sensititre YeastOne method
Sporothrix schenckii [8] = assay: Antifungal activity against Sporothrix schenckii P25013 isolate from cutaneous-lymphatic sporotrichosis patient after 72 hrs by ATB Fungus 2 method
Sporothrix schenckii [9] = assay: Antifungal activity against Sporothrix schenckii P20825 isolate from cutaneous-lymphatic sporotrichosis patient after 72 hrs by Sensititre YeastOne method
Sporothrix schenckii [10] = assay: Antifungal activity against Sporothrix schenckii P20825 isolate from cutaneous-lymphatic sporotrichosis patient after 72 hrs by ATB Fungus 2 method
Sporothrix schenckii [11] = assay: Antifungal activity against Sporothrix schenckii P30019 isolate from cutaneous-lymphatic sporotrichosis patient after 72 hrs by modified NCCLS M38-A method
Sporothrix schenckii [12] = assay: Antifungal activity against Sporothrix schenckii P30019 isolate from cutaneous-lymphatic sporotrichosis patient after 72 hrs by Sensititre YeastOne method
Sporothrix schenckii [13] = assay: Antifungal activity against Sporothrix schenckii P30019 isolate from cutaneous-lymphatic sporotrichosis patient after 72 hrs by ATB Fungus 2 method
Sporothrix schenckii [14] = assay: Antifungal activity against Sporothrix schenckii P14954 isolate from cutaneous-lymphatic sporotrichosis patient after 72 hrs by modified NCCLS M38-A method
Sporothrix schenckii [15] = assay: Antifungal activity against Sporothrix schenckii P14954 isolate from cutaneous-lymphatic sporotrichosis patient after 72 hrs by ATB Fungus 2 method
Sporothrix schenckii [16] = assay: Antifungal activity against Sporothrix schenckii MRSS4 isolate from cutaneous-lymphatic sporotrichosis patient after 72 hrs by Sensititre YeastOne method
Sporothrix schenckii [17] = assay: Antifungal activity against Sporothrix schenckii MRSS4 isolate from cutaneous-lymphatic sporotrichosis patient after 72 hrs by ATB Fungus 2 method
Sporothrix schenckii [18] = assay: Antifungal activity against Sporothrix schenckii P24223 isolate from cutaneous-lymphatic sporotrichosis patient after 72 hrs by modified NCCLS M38-A method
Sporothrix schenckii [19] = assay: Antifungal activity against Sporothrix schenckii P24223 isolate from cutaneous-lymphatic sporotrichosis patient after 72 hrs by Sensititre YeastOne method
Sporothrix schenckii [20] = assay: Antifungal activity against Sporothrix schenckii P24223 isolate from cutaneous-lymphatic sporotrichosis patient after 72 hrs by ATB Fungus 2 method
Sporothrix schenckii [21] = assay: Antifungal activity against Sporothrix schenckii PSCC1 isolate from cutaneous-lymphatic sporotrichosis patient after 72 hrs by modified NCCLS M38-A method
Sporothrix schenckii [22] = assay: Antifungal activity against Sporothrix schenckii PSCC1 isolate from cutaneous-lymphatic sporotrichosis patient after 72 hrs by Sensititre YeastOne method
Sporothrix schenckii [23] = assay: Antifungal activity against Sporothrix schenckii PSCC1 isolate from cutaneous-lymphatic sporotrichosis patient after 72 hrs by ATB Fungus 2 method
Sporothrix schenckii [24] = assay: Antifungal activity against Sporothrix schenckii P24255 isolate from cutaneous-lymphatic sporotrichosis patient after 72 hrs by Sensititre YeastOne method
Sporothrix schenckii [25] = assay: Antifungal activity against Sporothrix schenckii P10012 isolate from cutaneous-lymphatic sporotrichosis patient after 72 hrs by Sensititre YeastOne method
Sporothrix schenckii [26] = assay: Antifungal activity against Sporothrix schenckii P10012 isolate from cutaneous-lymphatic sporotrichosis patient after 72 hrs by ATB Fungus 2 method
Sporothrix schenckii [27] = assay: Antifungal activity against Sporothrix schenckii P1621 isolate from cutaneous-lymphatic sporotrichosis patient after 72 hrs by modified NCCLS M38-A method
Sporothrix schenckii [28] = assay: Antifungal activity against Sporothrix schenckii P1621 isolate from cutaneous-lymphatic sporotrichosis patient after 72 hrs by ATB Fungus 2 method
Sporothrix schenckii [29] = assay: Antifungal activity against Sporothrix schenckii SSA29 isolate from cutaneous-lymphatic sporotrichosis patient after 72 hrs by modified NCCLS M38-A method
Sporothrix schenckii [30] = assay: Antifungal activity against Sporothrix schenckii SSA29 isolate from cutaneous-lymphatic sporotrichosis patient after 72 hrs by Sensititre YeastOne method
Sporothrix schenckii [31] = assay: Antifungal activity against Sporothrix schenckii P26187 isolate from cutaneous-lymphatic sporotrichosis patient after 72 hrs by modified NCCLS M38-A method
Sporothrix schenckii [32] = assay: Antifungal activity against Sporothrix schenckii P26187 isolate from cutaneous-lymphatic sporotrichosis patient after 72 hrs by Sensititre YeastOne method
Sporothrix schenckii [33] = assay: Antifungal activity against Sporothrix schenckii P26187 isolate from cutaneous-lymphatic sporotrichosis patient after 72 hrs by ATB Fungus 2 method
Sporothrix schenckii [34] = assay: Antifungal activity against Sporothrix schenckii PGAC0016 isolate from cutaneous-lymphatic sporotrichosis patient after 72 hrs by Sensititre YeastOne method
Sporothrix schenckii [35] = assay: Antifungal activity against Sporothrix schenckii PGAC0016 isolate from cutaneous-lymphatic sporotrichosis patient after 72 hrs by ATB Fungus 2 method
Sporothrix schenckii [36] = assay: Antifungal activity against Sporothrix schenckii PJRC002 isolate from cutaneous-lymphatic sporotrichosis patient after 72 hrs by modified NCCLS M38-A method
Sporothrix schenckii [37] = assay: Antifungal activity against Sporothrix schenckii PJRC002 isolate from cutaneous-lymphatic sporotrichosis patient after 72 hrs by ATB Fungus 2 method
Sporothrix schenckii [38] = assay: Antifungal activity against Sporothrix schenckii P14036 isolate from cutaneous-lymphatic sporotrichosis patient after 72 hrs by Sensititre YeastOne method
Sporothrix schenckii [39] = assay: Antifungal activity against Sporothrix schenckii P14036 isolate from cutaneous-lymphatic sporotrichosis patient after 72 hrs by ATB Fungus 2 method
Sporothrix schenckii [40] = assay: Antifungal activity against Sporothrix schenckii P30915 isolate from cutaneous-lymphatic sporotrichosis patient after 72 hrs by Sensititre YeastOne method
Sporothrix schenckii [41] = assay: Antifungal activity against Sporothrix schenckii P3287 isolate from cutaneous-lymphatic sporotrichosis patient after 72 hrs by Sensititre YeastOne method
Pichia kudriavzevii [42] = assay: Antifungal activity against Candida krusei ATCC 6258 […] after 72 hrs by Sensititre YeastOne method; conditions: ATCC 6258, 72 h
Pichia kudriavzevii [43] = assay: Antifungal activity against Candida krusei ATCC 6258 […] after 72 hrs by ATB Fungus 2 method; conditions: ATCC 6258, 72 h
Candida parapsilosis = assay: Antifungal activity against Candida parapsilosis ATCC 22019 […] after 72 hrs by ATB Fungus 2 method; conditions: Lodderomyces parapsilosis, ATCC 22019, 72 h
Sporothrix schenckii [44] = assay: Antifungal activity against Sporothrix schenckii isolate from cutaneous-lymphatic sporotrichosis patient after 72 hrs by modified NCCLS M38-A method
Sporothrix schenckii [45] = assay: Antifungal activity against Sporothrix schenckii isolate from cutaneous-lymphatic sporotrichosis patient after 72 hrs by ATB Fungus 2 method

**Q.** Which MIC (Sporothrix schenckii [1]) does the source give for `C[C@@H]1[C@H](O)[C@@H](C)/C=C/C=C/C=C/C=C/C=C/C=C/C=C/[C@H](O[C@@H]2O[C@H](C)[C@@H](O)[C@H](N)[C@@H]2O)C[C@@H]2O[C@](O)(C[C@@H](O)C[C@@H](O)[C@H](O)CC[C@@H](O)C[C@@H](O)CC(=O)O[C@H]1C)C[C@H](O)[C@H]2C(=O)O` [AMPHOTERICIN B] here?
**A.** The MIC was 8 µg/mL (≈ 8.66 µM).

**Q.** What about the MIC (Sporothrix schenckii [2]) of the same compound?
**A.** Its MIC is 0.125 µg/mL (≈ 0.135 µM).

**Q.** What about the MIC (Sporothrix schenckii [3]) of the same compound?
**A.** Its MIC is 0.25 µg/mL (≈ 0.271 µM).

**Q.** What about the MIC (Sporothrix schenckii [4]) of the same compound?
**A.** Its MIC is at most 0.5 µg/mL.

**Q.** And the MIC (Sporothrix schenckii [5])?
**A.** The MIC was 1 µg/mL (≈ 1.08 µM).

**Q.** And the MIC (Sporothrix schenckii [6])?
**A.** Its MIC is 0.06 µg/mL (≈ 0.0649 µM).

**Q.** And the MIC (Sporothrix schenckii [7])?
**A.** The MIC was 1 µg/mL (≈ 1.08 µM).

**Q.** What about the MIC (Sporothrix schenckii [8]) of the same compound?
**A.** The MIC was 1 µg/mL (≈ 1.08 µM).

**Q.** And the MIC (Sporothrix schenckii [9])?
**A.** Its MIC is 1 µg/mL (≈ 1.08 µM).

**Q.** What about the MIC (Sporothrix schenckii [10]) of the same compound?
**A.** Its MIC is 1 µg/mL (≈ 1.08 µM).

**Q.** And the MIC (Sporothrix schenckii [11])?
**A.** Its MIC is 1 µg/mL (≈ 1.08 µM).

**Q.** What about the MIC (Sporothrix schenckii [12]) of the same compound?
**A.** The MIC was 1 µg/mL (≈ 1.08 µM).

**Q.** What about the MIC (Sporothrix schenckii [13]) of the same compound?
**A.** The MIC was 1 µg/mL (≈ 1.08 µM).

**Q.** What about the MIC (Sporothrix schenckii [14]) of the same compound?
**A.** Its MIC is 0.25 µg/mL (≈ 0.271 µM).

**Q.** And the MIC (Sporothrix schenckii [15])?
**A.** The MIC was at most 0.5 µg/mL.

**Q.** And the MIC (Sporothrix schenckii [16])?
**A.** Its MIC is 0.5 µg/mL (≈ 0.541 µM).

**Q.** And the MIC (Sporothrix schenckii [17])?
**A.** The MIC was 4 µg/mL (≈ 4.33 µM).

**Q.** What about the MIC (Sporothrix schenckii [18]) of the same compound?
**A.** The MIC was 0.5 µg/mL (≈ 0.541 µM).

**Q.** What about the MIC (Sporothrix schenckii [19]) of the same compound?
**A.** Its MIC is 0.5 µg/mL (≈ 0.541 µM).

**Q.** What about the MIC (Sporothrix schenckii [20]) of the same compound?
**A.** Its MIC is at most 0.5 µg/mL.

**Q.** And the MIC (Sporothrix schenckii [21])?
**A.** The MIC was 0.25 µg/mL (≈ 0.271 µM).

**Q.** And the MIC (Sporothrix schenckii [22])?
**A.** Its MIC is 0.25 µg/mL (≈ 0.271 µM).

**Q.** And the MIC (Sporothrix schenckii [23])?
**A.** The MIC was at most 0.5 µg/mL.

**Q.** And the MIC (Sporothrix schenckii [24])?
**A.** Its MIC is 0.5 µg/mL (≈ 0.541 µM).

**Q.** And the MIC (Sporothrix schenckii [25])?
**A.** The MIC was 0.25 µg/mL (≈ 0.271 µM).

**Q.** What about the MIC (Sporothrix schenckii [26]) of the same compound?
**A.** Its MIC is at most 0.5 µg/mL.

**Q.** What about the MIC (Sporothrix schenckii [27]) of the same compound?
**A.** Its MIC is 0.125 µg/mL (≈ 0.135 µM).

**Q.** And the MIC (Sporothrix schenckii [28])?
**A.** Its MIC is at most 0.5 µg/mL.

**Q.** And the MIC (Sporothrix schenckii [29])?
**A.** The MIC was over 16 µg/mL.

**Q.** And the MIC (Sporothrix schenckii [30])?
**A.** Its MIC is 0.06 µg/mL (≈ 0.0649 µM).

**Q.** What about the MIC (Sporothrix schenckii [31]) of the same compound?
**A.** Its MIC is over 16 µg/mL.

**Q.** And the MIC (Sporothrix schenckii [32])?
**A.** Its MIC is 0.5 µg/mL (≈ 0.541 µM).

**Q.** And the MIC (Sporothrix schenckii [33])?
**A.** Its MIC is 4 µg/mL (≈ 4.33 µM).

**Q.** And the MIC (Sporothrix schenckii [34])?
**A.** Its MIC is 0.125 µg/mL (≈ 0.135 µM).

**Q.** What about the MIC (Sporothrix schenckii [35]) of the same compound?
**A.** Its MIC is at most 0.5 µg/mL.

**Q.** And the MIC (Sporothrix schenckii [36])?
**A.** The MIC was 4 µg/mL (≈ 4.33 µM).

**Q.** And the MIC (Sporothrix schenckii [37])?
**A.** Its MIC is 1 µg/mL (≈ 1.08 µM).

**Q.** What about the MIC (Sporothrix schenckii [38]) of the same compound?
**A.** The MIC was 0.5 µg/mL (≈ 0.541 µM).

**Q.** And the MIC (Sporothrix schenckii [39])?
**A.** Its MIC is 1 µg/mL (≈ 1.08 µM).

**Q.** And the MIC (Sporothrix schenckii [40])?
**A.** Its MIC is 0.5 µg/mL (≈ 0.541 µM).

**Q.** What about the MIC (Sporothrix schenckii [41]) of the same compound?
**A.** Its MIC is 0.5 µg/mL (≈ 0.541 µM).

**Q.** What about the MIC (Pichia kudriavzevii [42]) of the same compound?
**A.** The MIC was 0.5 µg/mL (≈ 0.541 µM).

**Q.** What about the MIC (Pichia kudriavzevii [43]) of the same compound?
**A.** Its MIC is at most 0.5 µg/mL.

**Q.** And the MIC (Candida parapsilosis)?
**A.** Its MIC is at most 0.5 µg/mL.

**Q.** What about the MIC50 (Sporothrix schenckii [44]) of the same compound?
**A.** The MIC50 was 1 µg/mL (≈ 1.08 µM).

**Q.** What about the MIC90 (Sporothrix schenckii [44]) of the same compound?
**A.** Its MIC90 is over 116 µg/mL.

**Q.** And the MIC50 (Sporothrix schenckii [45])?
**A.** Its MIC50 is 1 µg/mL (≈ 1.08 µM).

**Q.** What about the MIC90 (Sporothrix schenckii [45]) of the same compound?
**A.** Its MIC90 is 4 µg/mL (≈ 4.33 µM).
